Data: US7763624B2, “Substituted pyrazolo[3,4-d]pyrimidines as ACK-1 and LCK inhibitors” (Amgen Inc., priority 2005, dated 2010)
Read-outs that look alike come from different tables or passages of the source.

What was measured:
C8 cells = assay: ACK1 Cell Based Assay (survival under low serum, Cytotox One); conditions: read-out: ACK1 Cell-based IC50
Method: ACK1 Cell Based Assay The ACK1 cell based assay is designed to find inhibitors of ACK1 kinase activity which would be prime candidates for the development of anticancer drugs. […] After 20 to 24 h incubation at 37° C. and 5% CO2, cell viability is determined using the Cytotox One kit (Promega) according to the manufacturer's instructions.

ACK1 = target: T1, ACK1 (Homo sapiens, UniProt Q07912); assay: ACK1 Enzymatic Assay (PGT/autophosphorylation ELISA); type: biochemical
T1 construct: a fusion of an N-terminal (His)6 Tag with amino acids 117 to 489 of ACK1; (His)6 (N); made in house; host or cells: baculovirus infected Hi-5 insect cells
T1 sequence (Q07912 117-489): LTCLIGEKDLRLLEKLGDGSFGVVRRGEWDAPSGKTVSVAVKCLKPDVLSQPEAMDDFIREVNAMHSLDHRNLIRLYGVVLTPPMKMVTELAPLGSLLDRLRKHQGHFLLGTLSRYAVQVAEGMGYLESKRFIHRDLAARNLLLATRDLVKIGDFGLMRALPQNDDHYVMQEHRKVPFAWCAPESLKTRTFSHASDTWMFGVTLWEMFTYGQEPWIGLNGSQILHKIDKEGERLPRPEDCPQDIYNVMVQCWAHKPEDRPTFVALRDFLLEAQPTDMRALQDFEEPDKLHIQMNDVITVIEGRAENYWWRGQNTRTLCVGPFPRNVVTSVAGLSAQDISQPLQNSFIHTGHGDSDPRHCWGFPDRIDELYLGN
Method: IC50 values of compounds of the invention may be assessed as follows. The ACK1 kinase assay utilizes a protein expressed in baculovirus infected Hi-5 cells (a fusion of an N-terminal (His)6 Tag with amino acids 117 to 489 of ACK1) purified by affinity chromatography on a Ni-NTA column. The substrate for the reaction is ACK1 itself (autophosphorylation) and poly-Glutamic acid-Tyrosine (PGT (4:1), Sigma catalog #PO275). The PGT is coated to Nunc 96 well plates at 80 μg/mL overnight at 4° C. The morning after coating, the plates are washed twice, and […] reaction buffer (10 mM Hepes, pH 7.6; 20 mM MgCl2; 75 mM NaCl, 0.125% TWEEN20 (polyoxyethylene sorbitan monolaurate); 1 mM DTT) with 5 μM ATP are added to each well. Test compounds are added in […] DMSO, and the reaction is started by addition of […] kinase in assay buffer. The reaction proceeds for 2 h at room temperature. Next, the plates are washed four times, and the level of tyrosine phosphorylation in a given well is quantified by standard ELISA assay utilizing a phosphotyrosine antibody (PY20, Pierce).

LCK = target: T2, LCK (Homo sapiens, UniProt P06239); assay: LCK-Homogeneous Time Resolved Fluorescent (HTRF) Kinase Assay; type: biochemical
T2 construct: 15 μL of LCK KD GST (225-509) for a final volume of 40 μL; GST
T2 sequence (P06239 225-509): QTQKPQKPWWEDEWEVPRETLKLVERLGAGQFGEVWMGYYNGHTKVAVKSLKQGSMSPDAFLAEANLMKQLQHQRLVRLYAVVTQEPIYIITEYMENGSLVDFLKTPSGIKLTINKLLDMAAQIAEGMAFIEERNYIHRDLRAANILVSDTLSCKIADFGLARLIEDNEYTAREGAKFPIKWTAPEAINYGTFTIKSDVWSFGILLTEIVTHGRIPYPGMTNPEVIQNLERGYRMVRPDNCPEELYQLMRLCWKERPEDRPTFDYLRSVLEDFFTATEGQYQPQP
Method: LCK-Homogeneous Time Resolved Fluorescent (HTRF) Kinase Assay
The LCK HTRF assay begins with LCK in the presence of ATP phosphorylating the biotinylated peptide Gastrin. The reaction incubates for 90 min. To quench the assay detection reagents are added which both stop the reaction by diluting out the enzyme and chelating the metals due to the presence of EDTA. Once the detection reagents are added the assay incubates for 30 min to allow for equilibration of the detection reagents.
Buffer conditions are as follows: 50 mM HEPES pH 7.5, 50 mM NaCl, 20 mM MgCl2, 5 mM MnCl2, 2 mM DTT, 0.05% BSA.
The assay is quenched and stopped with 160 μL of a detection reagent. Detection reagents are as follows: Buffer made of 50 mM Tris, pH 7.5, 100 mM NaCl, 3 mM EDTA, 0.05% BSA, 0.1% Tween20.
The assay plate is read in either a Discovery or a RubyStar.

[1] = ACK1-dependent C8 cells, 0.125% FCS, 20 to 24 h

Compound | IC50 (C8 cells; [1]) [nM] | Ki (ACK1) [nM] | Ki (LCK) [nM] | IC50 (C8 cells) [nM]
2-(3-(2,6-dimethylphenylamino)-6-(phenylamino)-1H-indazol-1-yl)-1-(4-methylpiperazin-1-yl)ethanone [Compound 70] | > 100 | > 100 | < 10 | –
2-(3-(2,6-dimethylphenylamino)-6-(phenylamino)-1H-indazol-1-yl)-1-(piperazin-1-yl)ethanone [Compound 71] | > 100 | > 100 | < 10 | –
2-(3-(2,6-dimethylphenylamino)-6-(phenylamino)-1H-indazol-1-yl)acetic acid [Compound 69] | > 100 | 10 to 100 | < 10 | –
C=CCCn1nc(Nc2c(C)cccc2C)c2cnc(Nc3ccccc3)nc21 [Compound 33, 1-(but-3-enyl)-N^3-(2,6-dimethylphenyl)-N^6-phenyl-1H-pyrazolo[3,4-d]pyrimidine-3,6-diamine] | > 100 | 10 to 100 | < 10 | –
Cc1cccc(C)c1Nc1nn(CCC(O)CO)c2nc(Nc3ccccc3)ncc12 (centres unmarked) [Compound 34, 4-(3-(2,6-dimethylphenylamino)-6-(phenylamino)-1H-pyrazolo[3,4-d]pyrimidin-1-yl)butane-1,2-diol] | 10 to 100 | 10 to 100 | < 10 | –
Cc1cccc(C)c1Nc1nn(CCC2COCO2)c2nc(Nc3ccccc3)ncc12 (centres unmarked) [Compound 35, 1-(2-(1,3-dioxolan-4-yl)ethyl)-N^3-(2,6-dimethylphenyl)-N^6-phenyl-1H-pyrazolo[3,4-d]pyrimidine-3,6-diamine] | > 100 | 10 to 100 | < 10 | –
Cc1cccc(C)c1Nc1nn(CCCO)c2nc(Nc3ccccc3)ncc12 [Compound 37, 3-(3-(2,6-dimethylphenylamino)-6-(phenylamino)-1H-pyrazolo[3,4-d]pyrimidin-1-yl)propan-1-ol] | > 100 | 10 to 100 | < 10 | –
Cc1cccc(C)c1Nc1nn(CCCN(C)C)c2nc(Nc3ccccc3)ncc12 [Compound 38, 1-(3-(Dimethylamino)propyl)-N^3-(2,6-dimethylphenyl)-N^6-phenyl-1H-pyrazolo[3,4-d]pyrimidine-3,6-diamine] | 10 to 100 | 10 to 100 | < 10 | –
CNCCCn1nc(Nc2c(C)cccc2C)c2cnc(Nc3ccccc3)nc21 [Compound 39, N^3-(2,6-dimethylphenyl)-1-(3-(methylamino)propyl)-N^6-phenyl-1H-pyrazolo[3,4-d]pyrimidine-3,6-diamine] | > 100 | 10 to 100 | < 10 | –
CCN(CC)CCCn1nc(Nc2c(C)cccc2C)c2cnc(Nc3ccccc3)nc21 [Compound 40, 1-(3-(diethylamino)propyl)-N^3-(2,6-dimethylphenyl)-N^6-phenyl-1H-pyrazolo[3,4-d]pyrimidine-3,6-diamine] | > 100 | 10 to 100 | < 10 | –
Cc1cccc(C)c1Nc1nn(CCCN2CCCC2)c2nc(Nc3ccccc3)ncc12 [Compound 41, N^3-(2,6-dimethylphenyl)-N^6-phenyl-1-(3-(pyrrolidin-1-yl)propyl)-1H-pyrazolo[3,4-d]pyrimidine-3,6-diamine] | > 100 | 10 to 100 | < 10 | –
Cc1cccc(C)c1Nc1nn(CCC(O)CN(C)C)c2nc(Nc3ccccc3)ncc12 (centres unmarked) [Compound 43, 1-(dimethylamino)-4-(3-(2,6-dimethylphenylamino)-6-(phenylamino)-1H-pyrazolo[3,4-d]pyrimidin-1-yl)butan-2-ol] | > 100 | 10 to 100 | < 10 | –
CCN(CC)CC(O)CCn1nc(Nc2c(C)cccc2C)c2cnc(Nc3ccccc3)nc21 (centres unmarked) [Compound 44, 1-(diethylamino)-4-(3-(2,6-dimethylphenylamino)-6-(phenylamino)-1H-pyrazolo[3,4-d]pyrimidin-1-yl)butan-2-ol] | > 100 | > 100 | < 10 | –
Cc1cccc(C)c1Nc1nn(CCC(O)CN2CCCC2)c2nc(Nc3ccccc3)ncc12 (centres unmarked) [Compound 45, 4-(3-(2,6-dimethylphenylamino)-6-(phenylamino)-1H-pyrazolo[3,4-d]pyrimidin-1-yl)-1-(pyrrolidin-1-yl)butan-2-ol] | > 100 | > 100 | < 10 | –
Cc1cccc(C)c1Nc1nn(CCC(C)O)c2nc(Nc3ccccc3)ncc12 (centres unmarked) [Compound 46, 4-(3-(2,6-dimethylphenylamino)-6-(phenylamino)-1H-pyrazolo[3,4-d]pyrimidin-1-yl)butan-2-ol] | > 100 | 10 to 100 | < 10 | –
Cc1cccc(C)c1Nc1nn(CCCN2CCCCC2)c2nc(Nc3ccccc3)ncc12 [Compound 48, N^3-(2,6-Dimethyl-phenyl)-N^6-phenyl-1-(3-piperidin-1-yl-propyl)-1H-pyrazolo[3,4-d]pyrimidine-3,6-diamine] | > 100 | > 100 | < 10 | –
Cc1cccc(C)c1Nc1nn(CCCN2CCCCC2)c2nc(Nc3ccc(N4CCNCC4)cc3)ncc12 [Compound 49, N^3-(2,6-Dimethyl-phenyl)-N^6-(4-piperazin-1-yl-phenyl)-1-(3-piperidin-1-yl-propyl)-1H-pyrazolo[3,4-d]pyrimidine-3,6-diamine] | > 100 | 10 to 100 | < 10 | –
Cc1cccc(C)c1Nc1nn(CCCN2CCCCC2)c2nc(Nc3ccc(N4CCN(C)CC4)cc3)ncc12 [Compound 50, N^3-(2,6-Dimethyl-phenyl)-N^6-[4-(4-methyl-piperazin-1-yl)-phenyl]-1-(3-piperidin-1-yl-propyl)-1H-pyrazolo[3,4-d]pyrimidine-3,6-diamine] | 10 to 100 | 10 to 100 | < 10 | –
Cc1cccc(C)c1Nc1nn(CCN2CCOCC2)c2nc(Nc3ccccc3)ncc12 [Compound 51, N^3-(2,6-Dimethyl-phenyl)-1-(2-morpholin-4-yl-ethyl)-N^6-phenyl-1H-pyrazolo[3,4-d]pyrimidine-3,6-diamine] | – | 10 to 100 | < 10 | > 100
COCCOc1ccc(Nc2ncc3c(Nc4c(C)cccc4C)nn(CCN4CCOCC4)c3n2)cc1 [Compound 52, N^3-(2,6-Dimethyl-phenyl)-N^6-[4-(2-methoxy-ethoxy)-phenyl]-1-(2-morpholin-4-yl-ethyl)-1H-pyrazolo[3,4-d]pyrimidine-3,6-diamine] | > 100 | 10 to 100 | < 10 | –
COC(C)(C)CCn1nc(Nc2c(C)cccc2C)c2cnc(Nc3ccc(N4CCNCC4)cc3)nc21 [Compound 56, N^3-(2,6-Dimethyl-phenyl)-1-(3-methoxy-3-methylbutyl)-N^6-(4-piperazin-1-yl-phenyl)-1H-pyrazolo[3,4-d]pyrimidine-3,6-diamine] | < 10 | – | < 10 | –
CNc1ncc2c(Nc3c(Cl)cccc3Cl)nn(CCC(C)(C)OC)c2n1 [Compound 83, N^3-(2,6-dichlorophenyl)-1-(3-methoxy-3-methylbutyl)-N^6-methyl-1H-pyrazolo[3,4-d]pyrimidine-3,6-diamine] | – | > 100 | < 10 | –
CNc1ncc2c(Nc3c(Cl)cccc3Cl)nn(CCC(C)(C)OC)c2n1 [Compound 90, N^3-(2,6-dichlorophenyl)-1-(3-methoxy-3-methylbutyl)-N^5-methyl-1H-pyrazolo[3,4-d]pyrimidine-3,6-diamine] | > 100 | – | – | –
